Assay results from article PMC12333026, “Versatile Imidazole Scaffold with Potent Activity against Multiple Apicomplexan Parasites” (ACS Infectious Diseases, 2025).
Read-outs that look alike come from different tables or passages of the source.

Experiments:
PfPKG [1] = biological target: T1, PfPKG (Plasmodium falciparum, UniProt Q8I719); assay: PfPKG enzyme activity assay, recombinant WT; format: biochemical; settings: recombinant enzyme; ADP-Glo assay; mean ± SD, n = 2–3 experiments; read-out: enzyme IC50 (±SD) PfPKG WT
Experimental: (§1) Direct inhibition of recombinant PfPKG phosphorylation activity was carried out using a previously described nonradioactive assay. The assay evaluates PfPKG activity based on changes in initial ATP concentration via luminescence after enzyme phosphorylation of peptide substrate PKCtide ([…]) (SignalChem, Richmond, BC Canada). Enzyme kinase activity was measured in the presence of 26 μM PKCtide; 50.1 nM PfPKG; and 20 μM cGMP in a buffered solution containing 20 mM β-glycerol-phosphate, 20 mM MgCl2, 25 mM HEPES pH 7.5 (KOH), 0.1% BSA and 2 mM DTT. The reaction was activated by the addition of 10 μM ATP with incubation at 30 °C and 90 rpm agitation for 120 min. […] Each assay plate contained reaction wells with no enzyme, no PKCtide peptide substrate and no cGMP as internal controls.

PfPKG T618Q = PfPKG T618Q (Plasmodium falciparum, UniProt Q8I719, T618Q); assay: PfPKG enzyme activity assay, T618Q gatekeeper mutant; format: biochemical, P. falciparum
Experimental: as §1

PfCDPK1 = biological target: T2, PfCDPK1 (Plasmodium falciparum, UniProt P62344); assay: CDPK enzyme activity assay, PfCDPK1; format: biochemical, P. falciparum
T2 construct: made in house
Experimental: (§2) Recombinant expression of PfCDPK1, PfCDPK4, TgCDPK1 WT, TgCDPK1-G128M, CpCDPK1 and CpCDPK1-G152 M were purified as previously described. […] These reactions were performed in a buffer composed of 1 mM EGTA (pH 7.2), 10 mM MgCl2, 20 mM HEPES pH 7.5 (KOH), 0.1% BSA. The reactions were initiated with addition of 10 μM ATP and 2 mM CaCl2 as enzyme activation reagent. Reaction plates were incubated for 90 min with 90 rpm agitation at 30 °C. […] KinaseGlo (Promega) luminescence-based assay in which luminescence is inversely related to kinase activity and […] was used as previously described.

PfCDPK4 = biological target: T3, PfCDPK4 (Plasmodium falciparum, UniProt Q8IBS5); assay: CDPK enzyme activity assay, PfCDPK4; format: biochemical, P. falciparum
T3 construct: made in house
Experimental: as §2

[2] = system: P. falciparum 3D7 (WT) asexual stage parasites; assay: Growth inhibition assay, asexual stage parasites, WT 3D7; format: cell-based; settings: Plasmodium falciparum; 3D7 asexual stage parasites, 72 h; mean ± SD, n = 1–2
Experimental: (§3) lines were maintained with O+ human erythrocytes (BioIVT). WT 3D7A10 and T618Q parasites were kind gifts from Dr. David Fidock (Columbia University) and Dr. David Baker (London School of Tropical Medicine and Hygiene), respectively. Growth inhibition assays were performed as previously described. Parasites were grown in RPMI 1640 medium (Sigma-Aldrich, St. Louis, MO, U.S.A.) supplemented with 5 mg/mL Albumax (Gibco), 50 μg/mL hypoxanthine (Sigma-Aldrich), 2 mg/mL Na2CO3 (Sigma-Aldrich), 25 mM HEPES, and 50 μg/mL gentamicin (Gibco). The growth assay was initiated with cultures with >80% ring stage parasites, diluted to a parasitemia of 0.4% and a hematocrit of 1%. Parasites were transferred to a 96-well plate with test compounds, vehicle, or DHA as positive control, and maintained for 72 h in 5% CO2, 5% O2, and 90% N2 in a humidified chamber. Parasite viability at 72 h was determined by addition of SYBR Green I nucleic acid stain (Thermo Fisher Scientific, S7563) and Mitotracker Deep Red (Fisher M422426) followed by flow cytometry on a BD FACSVerse using BD FACSuite software. Data acquired were analyzed using Flowjo software. EC50 values were derived by nonlinear regression in Graph Pad Prism 7.

[3] = system: P. falciparum T618Q asexual stage parasites; assay: Growth inhibition assay, asexual stage parasites expressing PfPKG T618Q; format: cell-based; settings: Plasmodium falciparum, 72 h, read-out: P. falciparum EC50 (±SD) T618Q
Experimental: as §3

TgCDPK1 WT = biological target: T4, TgCDPK1 WT (Toxoplasma gondii, UniProt Q9BJF5); assay: biochemical
T4 sequence (Q9BJF5 1-507): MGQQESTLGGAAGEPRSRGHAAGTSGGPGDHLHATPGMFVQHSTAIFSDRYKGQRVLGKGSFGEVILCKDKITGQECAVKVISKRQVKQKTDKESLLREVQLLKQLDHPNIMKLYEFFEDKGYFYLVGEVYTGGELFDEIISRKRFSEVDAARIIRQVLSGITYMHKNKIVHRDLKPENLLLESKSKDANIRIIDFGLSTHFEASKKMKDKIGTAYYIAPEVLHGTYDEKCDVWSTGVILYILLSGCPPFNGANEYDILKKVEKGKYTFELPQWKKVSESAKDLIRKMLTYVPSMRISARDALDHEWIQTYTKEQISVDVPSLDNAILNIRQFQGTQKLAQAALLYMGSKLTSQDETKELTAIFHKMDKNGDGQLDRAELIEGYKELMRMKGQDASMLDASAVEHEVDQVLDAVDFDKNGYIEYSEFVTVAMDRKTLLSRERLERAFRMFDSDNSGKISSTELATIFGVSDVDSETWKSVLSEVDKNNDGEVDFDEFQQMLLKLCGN
Experimental: as §2

TgCDPK1-G128M = biological target: T5, TgCDPK1-G128M (Toxoplasma gondii, UniProt Q9BJF5, G128M); assay: CDPK enzyme activity assay, TgCDPK1 G128M; format: biochemical, T. gondii
T5 construct: made in house
Experimental: as §2

CpCDPK1 = biological target: T6, CpCDPK1 (Cryptosporidium parvum, UniProt A3FQ16); assay: CDPK enzyme activity assay, CpCDPK1 WT; format: biochemical, C. parvum
T6 construct: made in house
Experimental: as §2

CpCDPK1-G152M = biological target: T7, CpCDPK1-G152M (Cryptosporidium parvum, UniProt A3FQ16, G152M); assay: CDPK enzyme activity assay, CpCDPK1 G152M; format: biochemical, C. parvum
T7 construct: made in house
Experimental: as §2

[4] = system: strain UGA1 expressing nanoluciferase, replication in HCT-8 cells; assay: Growth inhibition assay in HCT-8 cells (nanoluciferase strain UGA1); format: cell-based, C. parvum; settings: Cryptosporidium parvum, 48 h, nanoluciferase readout, (±SD), read-out: EC50 of replication measured in HCT-8 cells
Experimental: strain UGA1 transfected to express nanoluciferase (Nluc) and obtained from the University of Arizona after propagation in newborn calves. HCT-8 cells were added to a 384-well plate and allowed to grow for 48 h to reach 75–90% confluence. The medium was removed, and test compounds were added in serial dilutions prior to the addition of 1000 oocysts per well in RPMI 1640 medium supplemented with 10% heat inactivated FBS and 1% penicillin streptomycin. Plates were incubated for 48 h; Nano-Glo luciferase reagent (Promega, Madison, WI) was then added, and the plates were read on an EnVision multilabel plate reader (PerkinElmer, Waltham, MA). EC50 curves were calculated as previously described using Prism v6.07 (GraphPad Software, La Jolla, CA).

[5] = system: T. gondii tachyzoites, parental control; assay: Proliferation EC50, host fibroblast nuclei count, parental control; format: cell-based; settings: Toxoplasma gondii
Experimental: (§4) Human Foreskin Fibroblasts (HFF) were cultured in DMEM, with D-glucose (4.5 g/L), L-glutamine, and sodium pyruvate (110 mg/L) (Gibco) that were further supplemented with 10% Fetal Clone 1 serum (FCS)(HyClone), 50 U/mL penicillin (Gibco), […] streptomycin (Gibco), and 1× GlutaMax (Gibco). HFF cells were cultured in T25 flasks (Corning) in a humidified incubator at 37 °C and 5% CO2. For culture, media was replaced with DMEM, as described above, with 1% FCS. Mutant strains were created as described in.
(§5) Presence of desired mutations in parasite lines, TgCDPK1^G128M, TgCDPK1^G128M + TgMAPKL1^L162Q and […] was verified through sequencing. Compounds were dissolved in DMSO and serially diluted 4-fold across the first 10 wells of a 96 well plate, with the highest drug concentration in the first column being 25 μM. The strain of was then added to the first 11 columns of the 96-well plate at a density of 4000 parasites per well. The 11th column contained no compounds, and the 12th column contained no parasites and no compound. After 5 days of incubation at 37 °C and 5% CO2, cells were washed with PBS and fixed with 4% PFA in PBS (Thermo Fisher Scientific, Waltham, MA, USA). After fixing, cells were washed three times with PBS and stained with 300 nM DAPI in PBS before being washed again three times with PBS.
(§6) Images were acquired in an ImageXpress Pico Automated Cell Imaging System (Molecular Devices, San Jose, CA, USA) with a 4× objective using UV fluorescence. Following imaging, ImageXpress software was used to count objects with a fluorescence intensity ≥8 and a size of 12–30 μm, giving a total count of host cell nuclei for each well. EC50 were determined based on the number of remaining fibroblast nuclei using a nonlinear regression analysis with GraphPad Prism software version 10.0.0 for Windows, GraphPad Software, Boston, Massachusetts USA. Each compound was tested in ≥3 experiments in quadruplicate rows.

[6] = system: T. gondii tachyzoites expressing TgPKG T761Q; assay: Proliferation EC50, host fibroblast nuclei count, TgPKG T761Q mutant; format: cell-based
Experimental: as §4, §5, §6

[7] = system: T. gondii tachyzoites expressing TgCDPK1 G128M; assay: Proliferation EC50, host fibroblast nuclei count, TgCDPK1 G128M mutant; format: cell-based
Experimental: as §4, §5, §6

[8] = system: T. gondii tachyzoites expressing TgCDPK1 G128M; TgMAPKL-1 L162Q; assay: Proliferation EC50, host fibroblast nuclei count, double mutant; format: cell-based; settings: Toxoplasma gondii, Fibroblast, read-out: T. gondii EC50 (±SD) CDPK1 G128M; MAPKL1 L162Q
Experimental: as §4, §5, §6

[9] = system: T. gondii RH strain expressing β-galactosidase, parental; assay: Proliferation EC50, β-galactosidase readout, parental strain; format: cell-based; settings: Toxoplasma gondii, 72 h, read-out: T. gondii EC50 (±SD) CONTROL
[10] = system: T. gondii RH strain with L162Q substitution in TgMAPKL1; assay: Proliferation EC50, β-galactosidase readout, TgMAPKL1 L162Q; format: cell-based
Experimental: as §4
An RH strain of with an L162Q substitution in TgMAPKL1 introduced by CRISPR/Cas9 site directed mutagenesis into a clone expressing β-galactosidase was used to determine the EC50s for proliferation. Compounds were dissolved in DMSO and serially diluted 4-fold across the first 11 columns of a 96 well plate from the highest concentration of 25 μM leaving the final column with no drugs. was added to the first 11 columns of the 96 well plate at 4000 parasites per well. The last column contained no compound. Plates were incubated 72 h at 37 °C and 5% CO2. were quantified by spectrophotometrically measuring the β-galactosidase concentration of each well after cell lysis and exposure to chlorophenol red β-galactopyranose (Sigma-Aldrich, St. Louis, MO) substrate. Each compound was tested at least three times in quadruplicate.

PfPKG [11] = biological target: T1, PfPKG; set-up: method as in number not shown in text; settings: enantiomer comparison; recently reported by the authors, ref number not shown in text; cited from earlier work

T7 sequence (A3FQ16 whole entry G152M): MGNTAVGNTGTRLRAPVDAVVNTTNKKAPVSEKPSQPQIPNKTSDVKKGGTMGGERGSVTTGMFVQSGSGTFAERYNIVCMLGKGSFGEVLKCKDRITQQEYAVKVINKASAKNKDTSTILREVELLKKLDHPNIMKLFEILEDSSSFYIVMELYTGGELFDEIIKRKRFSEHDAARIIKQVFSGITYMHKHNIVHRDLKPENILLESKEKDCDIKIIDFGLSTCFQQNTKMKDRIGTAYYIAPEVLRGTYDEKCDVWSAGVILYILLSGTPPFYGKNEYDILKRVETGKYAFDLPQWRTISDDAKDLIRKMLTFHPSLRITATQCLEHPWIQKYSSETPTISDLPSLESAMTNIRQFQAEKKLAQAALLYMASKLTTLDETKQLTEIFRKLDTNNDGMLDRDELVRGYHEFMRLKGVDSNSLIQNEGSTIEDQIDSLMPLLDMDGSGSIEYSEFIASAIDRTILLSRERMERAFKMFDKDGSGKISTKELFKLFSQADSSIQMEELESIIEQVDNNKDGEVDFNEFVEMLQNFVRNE
T5 sequence (Q9BJF5 whole entry G128M): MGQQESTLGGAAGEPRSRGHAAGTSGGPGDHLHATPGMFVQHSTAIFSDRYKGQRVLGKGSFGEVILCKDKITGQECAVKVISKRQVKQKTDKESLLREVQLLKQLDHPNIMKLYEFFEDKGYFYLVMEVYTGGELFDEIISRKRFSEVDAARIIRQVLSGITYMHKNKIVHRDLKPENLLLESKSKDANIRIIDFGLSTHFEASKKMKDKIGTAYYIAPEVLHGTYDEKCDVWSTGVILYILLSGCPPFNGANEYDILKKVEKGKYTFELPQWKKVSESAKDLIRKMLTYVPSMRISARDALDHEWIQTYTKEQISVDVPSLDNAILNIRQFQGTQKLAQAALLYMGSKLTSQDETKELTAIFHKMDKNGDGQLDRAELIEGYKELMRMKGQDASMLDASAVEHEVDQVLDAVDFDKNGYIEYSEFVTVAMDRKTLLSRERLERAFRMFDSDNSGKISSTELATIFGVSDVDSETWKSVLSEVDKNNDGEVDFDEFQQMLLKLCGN
T1 sequence (Q8I719 whole entry): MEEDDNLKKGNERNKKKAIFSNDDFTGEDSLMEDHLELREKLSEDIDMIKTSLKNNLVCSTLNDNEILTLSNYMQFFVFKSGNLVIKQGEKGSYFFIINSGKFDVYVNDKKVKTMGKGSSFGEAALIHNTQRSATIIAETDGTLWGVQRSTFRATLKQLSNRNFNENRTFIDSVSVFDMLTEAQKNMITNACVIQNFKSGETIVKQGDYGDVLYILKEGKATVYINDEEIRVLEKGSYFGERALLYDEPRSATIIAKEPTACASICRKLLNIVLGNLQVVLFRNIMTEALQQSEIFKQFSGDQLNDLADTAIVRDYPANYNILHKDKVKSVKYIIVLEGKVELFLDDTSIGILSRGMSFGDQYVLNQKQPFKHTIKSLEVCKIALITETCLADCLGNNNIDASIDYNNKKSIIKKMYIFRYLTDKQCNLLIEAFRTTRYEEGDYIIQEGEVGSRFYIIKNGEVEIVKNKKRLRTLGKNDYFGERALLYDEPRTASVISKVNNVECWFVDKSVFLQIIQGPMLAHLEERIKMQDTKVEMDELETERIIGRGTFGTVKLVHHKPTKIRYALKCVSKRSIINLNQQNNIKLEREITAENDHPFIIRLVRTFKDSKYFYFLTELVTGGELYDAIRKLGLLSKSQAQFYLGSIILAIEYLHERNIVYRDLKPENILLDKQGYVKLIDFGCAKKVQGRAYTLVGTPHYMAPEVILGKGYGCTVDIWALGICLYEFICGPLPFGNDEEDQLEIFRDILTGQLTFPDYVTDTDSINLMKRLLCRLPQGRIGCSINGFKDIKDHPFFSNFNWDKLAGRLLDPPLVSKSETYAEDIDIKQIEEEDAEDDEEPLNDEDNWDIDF
T3 sequence (Q8IBS5 whole entry): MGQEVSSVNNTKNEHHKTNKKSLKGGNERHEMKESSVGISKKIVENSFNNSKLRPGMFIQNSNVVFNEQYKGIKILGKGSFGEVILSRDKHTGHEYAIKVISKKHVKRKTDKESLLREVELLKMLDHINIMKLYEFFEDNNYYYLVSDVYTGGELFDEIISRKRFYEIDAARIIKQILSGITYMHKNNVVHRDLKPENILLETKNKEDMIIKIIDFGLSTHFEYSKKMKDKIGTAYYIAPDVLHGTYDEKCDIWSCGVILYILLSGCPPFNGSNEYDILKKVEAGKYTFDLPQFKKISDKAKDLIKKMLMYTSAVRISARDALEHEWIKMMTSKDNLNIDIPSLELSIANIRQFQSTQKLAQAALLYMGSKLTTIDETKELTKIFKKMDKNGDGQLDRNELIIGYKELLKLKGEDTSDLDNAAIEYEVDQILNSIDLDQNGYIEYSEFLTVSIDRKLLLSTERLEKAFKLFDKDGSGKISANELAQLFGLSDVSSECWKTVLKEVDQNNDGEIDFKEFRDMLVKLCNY
T2 sequence (P62344 whole entry): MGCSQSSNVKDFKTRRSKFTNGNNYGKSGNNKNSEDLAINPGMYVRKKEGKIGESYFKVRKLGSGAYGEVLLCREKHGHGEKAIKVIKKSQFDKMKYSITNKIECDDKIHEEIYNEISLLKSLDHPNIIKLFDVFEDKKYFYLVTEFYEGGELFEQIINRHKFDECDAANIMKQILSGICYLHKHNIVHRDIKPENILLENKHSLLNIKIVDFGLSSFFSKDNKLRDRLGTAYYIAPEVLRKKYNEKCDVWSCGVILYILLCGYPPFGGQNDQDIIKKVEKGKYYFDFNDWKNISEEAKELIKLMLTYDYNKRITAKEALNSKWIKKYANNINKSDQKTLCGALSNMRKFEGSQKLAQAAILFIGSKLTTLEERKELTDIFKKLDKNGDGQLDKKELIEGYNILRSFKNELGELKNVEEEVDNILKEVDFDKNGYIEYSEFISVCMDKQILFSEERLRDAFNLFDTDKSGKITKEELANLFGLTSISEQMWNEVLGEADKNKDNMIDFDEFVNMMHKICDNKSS
T6 sequence (A3FQ16 1-538): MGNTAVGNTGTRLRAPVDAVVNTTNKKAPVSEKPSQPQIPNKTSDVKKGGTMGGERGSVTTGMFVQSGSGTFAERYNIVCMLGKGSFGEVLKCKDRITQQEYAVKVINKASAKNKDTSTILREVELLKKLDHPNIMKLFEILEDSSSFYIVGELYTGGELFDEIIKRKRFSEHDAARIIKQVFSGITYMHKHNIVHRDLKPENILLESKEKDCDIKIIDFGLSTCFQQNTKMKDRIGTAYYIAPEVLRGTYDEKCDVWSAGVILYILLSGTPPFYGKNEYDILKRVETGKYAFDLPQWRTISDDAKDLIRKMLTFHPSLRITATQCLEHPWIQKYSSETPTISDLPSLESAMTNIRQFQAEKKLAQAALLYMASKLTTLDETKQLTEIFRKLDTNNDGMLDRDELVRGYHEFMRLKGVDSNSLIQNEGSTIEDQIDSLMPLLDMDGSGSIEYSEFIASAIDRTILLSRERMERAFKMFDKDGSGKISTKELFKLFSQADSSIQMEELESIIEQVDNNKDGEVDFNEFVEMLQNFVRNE
Chain of PfPKG T618Q (Q8I719 whole entry T618Q): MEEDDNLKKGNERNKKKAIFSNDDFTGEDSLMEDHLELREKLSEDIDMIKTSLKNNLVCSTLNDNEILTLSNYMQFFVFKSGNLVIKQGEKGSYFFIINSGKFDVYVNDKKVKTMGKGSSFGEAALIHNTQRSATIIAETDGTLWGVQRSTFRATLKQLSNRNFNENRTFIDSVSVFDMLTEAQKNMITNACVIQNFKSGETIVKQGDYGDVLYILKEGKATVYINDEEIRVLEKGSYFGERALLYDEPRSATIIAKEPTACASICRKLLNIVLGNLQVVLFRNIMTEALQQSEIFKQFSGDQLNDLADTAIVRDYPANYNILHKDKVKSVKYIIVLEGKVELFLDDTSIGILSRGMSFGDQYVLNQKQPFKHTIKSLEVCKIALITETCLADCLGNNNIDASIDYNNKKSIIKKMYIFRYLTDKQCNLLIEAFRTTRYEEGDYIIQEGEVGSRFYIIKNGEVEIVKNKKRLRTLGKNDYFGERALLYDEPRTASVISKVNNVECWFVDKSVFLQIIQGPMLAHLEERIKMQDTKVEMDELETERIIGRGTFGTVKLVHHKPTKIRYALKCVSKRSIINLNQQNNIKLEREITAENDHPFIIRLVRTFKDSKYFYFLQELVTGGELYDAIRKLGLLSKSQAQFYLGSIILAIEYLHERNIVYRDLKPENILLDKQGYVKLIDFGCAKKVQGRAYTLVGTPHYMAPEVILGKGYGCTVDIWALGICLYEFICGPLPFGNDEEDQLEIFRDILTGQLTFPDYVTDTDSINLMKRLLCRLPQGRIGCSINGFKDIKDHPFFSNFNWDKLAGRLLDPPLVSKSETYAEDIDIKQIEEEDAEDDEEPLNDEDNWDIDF

## O=C(c1nccs1)N1CC[C@@H](Nc2nccc(-n3cc(C4CC4)nc3-c3ccccc3)n2)C1 [(R)-RY-1-165]
PfPKG [1]
  IC50: 240 nM
PfPKG T618Q
  IC50: > 10000 nM
PfCDPK1
  IC50: 10100 nM
PfCDPK4
  IC50: 1700 nM
[2]
  EC50: 11000 nM
[3]
  EC50: 13400 nM
TgCDPK1 WT
  IC50: 50 nM
TgCDPK1 WT; TgCDPK1 versus PfCDPK4, 90 min
  IC50 for TgCDPK1 lower than for PfCDPK4: over 30 fold
TgCDPK1-G128M
  IC50: > 30000 nM
TgCDPK1-G128M; G128M versus WT enzyme
  TgCDPK1 G128M mutant enzyme less sensitive: at least 500 fold
CpCDPK1
  IC50: 170 nM
CpCDPK1-G152M
  IC50: > 30000 nM
CpCDPK1-G152M; G152M versus WT enzyme
  CpCDPK1 G152M mutant enzyme less sensitive: at least 175 ×
[4]
  EC50: 17900 nM
[5]; read-out: T. gondii EC50 (±SD) CONTROL, tachyzoites, parental control of CDPK1 G128M, mean ± SD, n = 3–5
  EC50: 860 nM
[5]; read-out: T. gondii EC50 (±SD) CONTROL, tachyzoites, parental control of PKG T761Q, mean ± SD, n = 3–5
  EC50: 260 nM
[5]; read-out: T. gondii EC50 (±SD) CONTROL, tachyzoites, parental control of the double mutant, mean ± SD, n = 3–5
  EC50: 540 nM
[6]; Toxoplasma gondii, Fibroblast, read-out: T. gondii EC50 (±SD) PKGT761Q
  EC50: 390 nM
[6]; in 2 experiments
  change in relative EC50, T761Q parasites versus parental controls: no change
[6]; in 3 experiments
  increase in EC50 against T761Q parasites relative to parental controls: 1.8–2.8 fold
[7]; TgCDPK1 G128M versus parental
  EC50 for G128M parasites higher compared to the parental strain: 1.7 fold
[7]; Toxoplasma gondii, Fibroblast, read-out: T. gondii EC50 (±SD) CDPK1 G128M
  EC50: 1530 nM
[8]
  EC50: 1570 nM
[9]
  EC50: 530 nM
[10]
  increase in EC50 against TgMAPKL-1 L162Q parasites versus parental strain: did not demonstrate a significant change in EC50
[10]; Toxoplasma gondii, 72 h, read-out: T. gondii EC50 (±SD) MAPKL1 L162Q
  EC50: 560 nM

## O=C(c1nccs1)N1CC[C@H](Nc2nccc(-n3cc(C4CC4)nc3-c3ccccc3)n2)C1 [(S)-RY-1-165]
PfPKG [11]
  PfPKG inhibition (in words): inactive
